molecular target: T1, Human plasma kallikrein (Homo sapiens, UniProt P03952); experiment: Kallikrein Assay (fluorogenic substrate hydrolysis, AFC release); format: biochemical; details: purified Human plasma kallikrein 0.5 nM; substrate Acetyl-K—P—R-AFC 100 mM; 50 mM HEPES pH 7.4
T1 construct: yields a heavy chain (371 amino acids) and a light chain (248 amino acids); purchased Enzyme Research Laboratories
Summary of the method: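 Purified human plasma kallikrein (0.5 nM final) with Acetyl-K-P-R-AFC substrate (final ≤0.2 Km) in 50 mM HEPES pH 7.4, 150 mM NaCl, 5 mM CaCl2, 0.1% PEG 8000, after enzyme–inhibitor equilibration; room temperature or 37° C. AFC fluorescence (405 Ex/510 Em nm) under linear conditions; IC50 by four-parameter fit, Ki via Cheng-Prusoff.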

T1 sequence (P03952 391-638 limits assumed): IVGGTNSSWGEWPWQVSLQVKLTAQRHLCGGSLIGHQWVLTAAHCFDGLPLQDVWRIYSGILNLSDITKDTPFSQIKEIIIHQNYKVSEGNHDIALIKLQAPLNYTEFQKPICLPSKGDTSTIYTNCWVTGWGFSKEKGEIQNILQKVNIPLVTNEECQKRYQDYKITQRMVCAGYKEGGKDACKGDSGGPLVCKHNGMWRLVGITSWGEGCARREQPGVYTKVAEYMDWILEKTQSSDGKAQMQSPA
T1 sequence (P03952 20-390 partner limits assumed): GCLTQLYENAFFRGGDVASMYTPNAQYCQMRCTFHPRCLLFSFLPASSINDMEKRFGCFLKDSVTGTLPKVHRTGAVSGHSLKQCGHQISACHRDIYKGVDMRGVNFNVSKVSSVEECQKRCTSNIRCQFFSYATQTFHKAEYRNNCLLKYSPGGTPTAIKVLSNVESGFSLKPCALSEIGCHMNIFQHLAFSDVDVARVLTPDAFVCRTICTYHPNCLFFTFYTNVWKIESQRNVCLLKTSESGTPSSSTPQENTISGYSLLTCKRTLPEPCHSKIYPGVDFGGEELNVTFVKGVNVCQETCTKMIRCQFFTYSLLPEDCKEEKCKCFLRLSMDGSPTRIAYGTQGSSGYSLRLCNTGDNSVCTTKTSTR

Row | Compound | IC50
1 | Cc1cc(N2C[C@H]3C[C@H]3C2=O)ncc1C(C)n1cc(C(=O)NC2CC(c3cc(Cl)ccc3C#N)C2)c([C@H](C)O)n1 (stereo in doubt) [Example 172, N-((cis)-3-(5-chloro-2-cyanophenyl)cyclobutyl)-3-((S)-1-hydroxyethyl)-1-((S)-1-(4-methyl-6-((1R,5S)-2-oxo-3-azabicyclo[3.1.0]hexan-3-yl)pyridin-3-yl)ethyl)-1H-pyrazole-4-carboxamide] | 11.1 nM
2 | Cc1cc(N2C[C@H]3C[C@H]3C2=O)ncc1Cn1cc(C(=O)N[C@H]2C[C@@H](c3cc(Cl)ccc3C#N)C2)c(C(F)F)n1 [Example 38, N-((cis)-3-(5-chloro-2-cyanophenyl)cyclobutyl)-3-(difluoromethyl)-1-((4-methyl-6-((1R,5S)-2-oxo-3-azabicyclo[3.1.0]hexan-3-yl)pyridin-3-yl)methyl)-1H-pyrazole-4-carboxamide] | 1.1 nM
3 | Cc1cc(C(C)(C)n2cc(C(=O)N[C@H]3C[C@@H](c4cc(Cl)ccc4C#N)C3)nn2)cnc1N1C[C@H]2C[C@H]2C1=O [Example 61, N-((cis)-3-(5-chloro-2-cyanophenyl)cyclobutyl)-1-(2-(5-methyl-6-((1R,5S)-2-oxo-3-azabicyclo[3.1.0]hexan-3-yl)pyridin-3-yl)propan-2-yl)-1H-1,2,3-triazole-4-carboxamide] | 10.1 nM
4 | N#Cc1ccc(Cl)cc1[C@H]1C[C@@H](NC(=O)c2cn(Cc3cnc(N4C[C@H]5C[C@H]5C4=O)nc3)nn2)C1 [Example 79, N-((cis)-3-(5-chloro-2-cyanophenyl)cyclobutyl)-1-((2-((1R,5S)-2-oxo-3-azabicyclo[3.1.0]hexan-3-yl)pyrimidin-5-yl)methyl)-1H-1,2,3-triazole-4-carboxamide] | 16.1 nM
5 | Cc1ccc(C#N)c([C@]2(C)C[C@H](NC(=O)c3cn([C@@H](C)c4cnc(N5C[C@H]6C[C@H]6C5=O)c(C)c4C)nn3)C2)c1 [Example 143, N-((cis)-3-(2-cyano-5-methylphenyl)-3-methylcyclobutyl)-1-((S)-1-(4,5-dimethyl-6-((1R,5S)-2-oxo-3-azabicyclo[3.1.0]hexan-3-yl)pyridin-3-yl)ethyl)-1H-1,2,3-triazole-4-carboxamide] | 0.2 nM
6 | Cc1cc(N2C[C@H]3C[C@H]3C2=O)ncc1[C@H](C)n1cc(C(=O)N[C@H]2C[C@@](C)(c3cc(Cl)ccc3C(N)=O)C2)nn1 [Example 144, N-((cis)-3-(2-carbamoyl-5-chlorophenyl)-3-methylcyclobutyl)-1-((S)-1-(4-methyl-6-((1R,5S)-2-oxo-3-azabicyclo[3.1.0]hexan-3-yl)pyridin-3-yl)ethyl)-1H-1,2,3-triazole-4-carboxamide] | 1 nM
7 | [2H][C@]1(c2cc(Cl)ccc2C#N)C[C@@H](NC(=O)c2cn([C@@H](C)c3cnc(N4C[C@H]5C[C@H]5C4=O)cc3C)nn2)C1 [Example 147, N-((cis)-3-(5-chloro-2-cyanophenyl)cyclobutyl-3-d)-1-((S)-1-(4-methyl-6-((1R,5S)-2-oxo-3-azabicyclo[3.1.0]hexan-3-yl)pyridin-3-yl)ethyl)-1H-1,2,3-triazole-4-carboxamide] | 0.6 nM
8 | Cc1cc(N2C[C@H]3C[C@H]3C2=O)ncc1[C@H](C)n1cc(C(=O)N[C@H]2C[C@@H](c3cc(Cl)ccc3-n3cc(F)cn3)C2)nn1 [Example 149, N-((cis)-3-(5-chloro-2-(4-fluoro-1H-pyrazol-1-yl)phenyl)cyclobutyl)-1-((S)-1-(4-methyl-6-((1R,5S)-2-oxo-3-azabicyclo[3.1.0]hexan-3-yl)pyridin-3-yl)ethyl)-1H-1,2,3-triazole-4-carboxamide] | 5 nM
9 | Cc1cc(N2C[C@H]3C[C@H]3C2=O)ncc1C1(n2cc(C(=O)N[C@H]3C[C@@H](c4cc(Cl)ccc4C#N)C3)cn2)CC1 [Example 159, N-((cis)-3-(5-chloro-2-cyanophenyl)cyclobutyl)-1-(1-(4-methyl-6-((1R,5S)-2-oxo-3-azabicyclo[3.1.0]hexan-3-yl)pyridin-3-yl)cyclopropyl)-1H-pyrazole-4-carboxamide] | 1.7 nM
10 | Cc1cc(N2C[C@H]3C[C@H]3C2=O)ncc1C1(n2cc(C(=O)N[C@H]3C[C@@H](c4cc(Cl)ccc4C#N)C3)nn2)CC1 [Example 160, N-((cis)-3-(5-chloro-2-cyanophenyl)cyclobutyl)-1-(1-(4-methyl-6-((1R,5S)-2-oxo-3-azabicyclo[3.1.0]hexan-3-yl)pyridin-3-yl)cyclopropyl)-1H-1,2,3-triazole-4-carboxamide] | 6.7 nM
11 | N-((cis)-3-(5-chloro-2-cyanophenyl)cyclobutyl)-1-((R)-3-((1R,5S)-2-oxo-3-azabicyclo[3.1.0]hexan-3-yl)-6,7-dihydro-5H-cyclopenta[c]pyridin-7-yl)-1H-1,2,3-triazole-4-carboxamide and N-((cis)-3-(5-chloro-2-cyanophenyl)cyclobutyl)-1-((S)-3-((1R,5S)-2-oxo-3-azabicyclo[3.1.0]hexan-3-yl)-6,7-dihydro-5H-cyclopenta[c]pyridin-7-yl)-1H-1,2,3-triazole-4-carboxamide [Example 153] | 23.9 nM

The remaining compounds from weak to strong by IC50, led by results:

Row | IC50 | Compound
12 | 26.9 nM | Cc1cc(N2C[C@H]3C[C@H]3C2=O)ncc1[C@@H](C)c1cc(C(=O)N[C@H]2C[C@@H](c3cc(Cl)ccc3C#N)C2)n(C)n1 [Example 174, N-((cis)-3-(5-chloro-2-cyanophenyl)cyclobutyl)-1-methyl-3-((R)-1-(4-methyl-6-((1R,5S)-2-oxo-3-azabicyclo[3.1.0]hexan-3-yl)pyridin-3-yl)ethyl)-1H-pyrazole-5-carboxamide]
13 | 10.6 nM | N#Cc1ccc(Cl)cc1[C@H]1C[C@@H](NC(=O)c2cnn(Cc3cnc(N4C[C@H]5C[C@H]5C4=O)nc3)c2)C1 [Example 2, N-((cis)-3-(5-chloro-2-cyanophenyl)cyclobutyl)-1-((2-((1R,5S)-2-oxo-3-azabicyclo[3.1.0]hexan-3-yl)pyrimidin-5-yl)methyl)-1H-pyrazole-4-carboxamide]
14 | 5.8 nM | Cc1c([C@H](C)n2cc(C(=O)NC34CCCC(c5cc(Cl)ccc5C#N)(C3)C4)nn2)cnc(N2C[C@H]3C[C@H]3C2=O)c1C [Example 150, N-(5-(5-chloro-2-cyanophenyl)bicyclo[3.1.1]heptan-1-yl)-1-((S)-1-(4,5-dimethyl-6-((1R,5S)-2-oxo-3-azabicyclo[3.1.0]hexan-3-yl)pyridin-3-yl)ethyl)-1H-1,2,3-triazole-4-carboxamide]
15 | 3.2 nM | Cc1cc(N2C[C@H]3C[C@H]3C2=O)ncc1[C@H](C)c1cc(C(=O)N[C@H]2C[C@@H](c3cc(Cl)ccc3C#N)C2)n(C)n1 [Example 173, N-((cis)-3-(5-chloro-2-cyanophenyl)cyclobutyl)-1-methyl-3-((S)-1-(4-methyl-6-((1R,5S)-2-oxo-3-azabicyclo[3.1.0]hexan-3-yl)pyridin-3-yl)ethyl)-1H-pyrazole-5-carboxamide]
16 | 0.9 nM | Cc1c([C@H](C)n2cc(C(=O)N[C@H]3C[C@@H](c4cc(Cl)ccc4C(N)=O)C3)nn2)cnc(N2C[C@H]3C[C@H]3C2=O)c1C [Example 158]
17 | 0.7 nM | Cc1cc(N2C[C@H]3C[C@H]3C2=O)ncc1Cn1cc(C(=O)N[C@H]2C[C@@H](c3cc(Cl)ccc3C#N)C2)cn1 [Example 37, N-((cis)-3-(5-chloro-2-cyanophenyl)cyclobutyl)-1-((4-methyl-6-((1R,5S)-2-oxo-3-azabicyclo[3.1.0]hexan-3-yl)pyridin-3-yl)methyl)-1H-pyrazole-4-carboxamide]
18 | 0.6 nM | [2H][C@]1(NC(=O)c2cn([C@@H](C)c3cnc(N4C[C@H]5C[C@H]5C4=O)cc3C)nn2)C[C@@H](c2cc(Cl)ccc2C#N)C1 [Example 148, N-((cis)-3-(5-chloro-2-cyanophenyl)cyclobutyl-1-d)-1-((S)-1-(4-methyl-6-((1R,5S)-2-oxo-3-azabicyclo[3.1.0]hexan-3-yl)pyridin-3-yl)ethyl)-1H-1,2,3-triazole-4-carboxamide]
19 | 0.4 nM | Cc1c([C@H](C)n2cc(C(=O)N[C@H]3C[C@@](C)(c4cc(Cl)ccc4C(N)=O)C3)nn2)cnc(N2C[C@H]3C[C@H]3C2=O)c1C [Example 142, N-((cis)-3-(2-carbamoyl-5-chlorophenyl)-3-methylcyclobutyl)-1-((S)-1-(4,5-dimethyl-6-((1R,5S)-2-oxo-3-azabicyclo[3.1.0]hexan-3-yl)pyridin-3-yl)ethyl)-1H-1,2,3-triazole-4-carboxamide]
20 | 0.2 nM | Cc1c([C@H](C)n2cc(C(=O)N[C@H]3C[C@@](C)(c4cc(Cl)ccc4C#N)C3)nn2)cnc(N2C[C@H]3C[C@H]3C2=O)c1C [Example 141, N-((cis)-3-(5-chloro-2-cyanophenyl)-3-methylcyclobutyl)-1-((S)-1-(4,5-dimethyl-6-((1R,5S)-2-oxo-3-azabicyclo[3.1.0]hexan-3-yl)pyridin-3-yl)ethyl)-1H-1,2,3-triazole-4-carboxamide]

— patent publication US12528786B2, “Plasma kallikrein inhibitors” (Merck Sharp & Dohme LLC, priority 2020, dated 2026)
